Measurements reported in US9675663B2, “TUSC2 therapies” (Board of Regents, The University of Texas System, priority 2011, dated 2017).
“And” between values parts separate entries of the source, which are not always exact repeats. Equal entries are not always repeated.

Tests used:
HCC366 and H322 cells = experiment: Effect of AMPK inhibitor on FUS1/MK2206-induced cell death; format: cell-based, human; settings: AMPK inhibitor present
Procedure: FIG. 23: The effect of AMPK inhibitor on FUS1/MK2206-induced cell death. Cell survival was assessed in HCC366 and H322 cells treated with FUS1 nanoparticles and various concentrations of MK2206 in the presence or absence of AMPK inhibitor Compound C. Graphs show relative cell survival (y-axis) at various concentrations of MK2206 (x-axis) with and without AMPK inhibitor as indicated.
(§1) To better determine the mechanism for synergistic FUS1/MK2206 effect, treated cells were subjected to an immunoblots to assess the phosphorylation status of cell signaling molecules. […] Thus, FUS1-increased sensitivity to MK2206 is associated with the down-regulation of AKT and mTOR phosphorylation and up-regulation of AMPK phosphorylation. In view of these studies a proposed FUS/MK2206 signaling pathway is provided as FIG. 25.

HCC366 = experiment: IC50 of MK2206 alone or with FUS1-nanoparticles; format: cell-based; settings: Homo sapiens
Procedure: (§2) FIG. 17: Single drug treatment of MK2206 on lung cancer cells. […] Cell lines that were further analyzed are indicated by arrows.
(§3) FIG. 18: FUS1/MK2206-induced cell death in lung cancer cell lines. Graphs show the relative survival rates for the indicated cancer cells (y-axis) when contacted with empty vector (EV) or FUS1 nanoparticles in the presence of increasing concentrations of MK2206 (x-axis).
(§4) Single drug treatment with AKT inhibitor MK2206 was also assessed in a wide range of lung cancer cell lines. Cell lines indicated by arrows (H322, A549, H2887 and […]) were subjected to further analysis. First, each of the cell lines was treated with FUS1 nanoparticles or empty vector at increasing concentrations of MK2206. […] The effect of the combined therapy was especially evident in H2887, H322 and HCC366 cells. Next, the ability of combined FUS1/MK2206 treatment to inhibit colony formation was studied in the cell lines. […] Thus, FUS1 treatment is able to sensitize cancer cells to the effects of kinase inhibitors such as the AKT inhibitor MK2206. This effect was quantified relative to each studied cell line below in Table 13.

H2887 = experiment: IC50 of MK2206 alone or with FUS1-nanoparticles; format: cell-based; settings: Homo sapiens, NCI-H2887
Procedure: as §2, §3, §4

A549 = experiment: IC50 of MK2206 alone or with FUS1-nanoparticles; format: cell-based; settings: Homo sapiens
Procedure: as §2, §3, §4

H322 = experiment: IC50 of MK2206 alone or with FUS1-nanoparticles; format: cell-based; settings: Homo sapiens, NCI-H322
Procedure: as §2, §3, §4

[1] = tested on: phosphorylated AMPK, AKT, mTOR and S6K; experiment: Immunoblot of phosphorylated signaling proteins in FUS1/MK2206-treated cell lines; format: cell-based, human; settings: addition of MK2206; HCC366 or H322 cells
Procedure: FIG. 21: Immunoblot of p-AKT, p-AMPK and p-mTOR in FUS1/MK2206-treated cell lines. Phosphorylation specific antibodies were used to assess expression of phosphorylated AMPK, AKT, mTOR and S6K in HCC366 or H322 cells. Cells were treated with empty vector (EV); FUS1 nanoparticles (FUS1); MK2206; empty vector+MK2206 (EV+MK); or FUS1 nanoparticles+MK2206 (FUS1+MK) prior to assessment for phosphorylated protein expression. Immunoblot of β-actin was used as a loading control.
as §1

H322 cells = experiment: Colony formation assay; format: cell-based, human; parameters: Colony formation, groups 1-3 (replicates) / Colony formation, average: unit not given here; settings: for Colony formation normalized on EV: EV + PBS = 100%; for Colony formation, average / Colony formation, groups 1-3 (replicates): number after + = μg Erlotinib; for Colony formation normalized on pc301: pc301PBS = 100%
Procedure: FIG. 7: Fus1 and Erlotinib combined treatment effect on colony formation of H322 cells. […] “EV” indicates empty vector; Fus1 indicates a vector containing Fus1; numerical values following “+” indicate μg of Erlotinib; PBS indicates Phosphate-Buffer Saline control. […]
(§5) To assess cooperative effects of tumor growth data between FUS-1 (FUST) and Erlotinib (Erlo) a Bayesian Bootstrapping analysis approach was used. The Pr(min(μF, μE)<μC|(data) was calculated i.e., the posterior probability that the minimum of the two posterior mean colony formation for FUS-1 alone, μF, or Erlotinib alone, μE, […] the mean posterior colony formation for the combination μC. This probability calculates the likelihood that average colony formation in the combination arm will be less than the minimum of the two single agent arms. Cooperative effects are shown if this posterior probability is large. Thus, the probability of cooperative effect ranges from 0.0 to 1.0 where 0 means no chance of a true cooperative effect given the data observed while 1 means 100% certainty of a cooperative effect given the data observed. The Statistical software S-PLUS 8.0 were used for all the analyses.

A549 cells = experiment: Colony formation assay; format: cell-based, human; settings: for Colony formation normalized on EV: EV + PBS = 100%; for Colony formation, average / Colony formation, groups 1-3 (replicates): number after + = μg Erlotinib; for Colony formation normalized on pc301: pc301PBS = 100%
Procedure: FIG. 8: Fus1 and Erlotinib combined treatment effect on colony formation of A549 cells. […] “EV” indicates empty vector; Fus1 indicates a vector containing Fus1; numerical values following “+” indicate μg of Erlotinib; PBS indicates Phosphate-Buffer Saline control.
as §5

H1299 cells = experiment: Colony formation assay; format: cell-based, human; parameters: Colony formation, groups 1-3 (replicates) / Colony formation, average: unit not given here; settings: for Colony formation normalized on EV: EV + PBS = 100%; for Colony formation, average / Colony formation, groups 1-3 (replicates): number after + = μg Erlotinib; for Colony formation normalized on pc301: pc301PBS = 100%
Procedure: FIG. 6: Fus1 and Erlotinib combined treatment effect on colony formation of H1299 cells. […] “EV” indicates empty vector; Fus1 indicates a vector containing Fus1; numerical values following “erlo” indicate μg of Erlotinib; PBS indicates Phosphate-Buffer Saline control. […]
as §5

H460 cells = experiment: Colony formation assay; format: cell-based, human; settings: for Colony formation normalized on EV: EV + PBS = 100%; for Colony formation, average / Colony formation, groups 1-3 (replicates): number after + = μg Erlotinib
Procedure: FIG. 9: Fus1 and Erlotinib combined treatment effect on colony formation of H460 cells. […] “EV” indicates empty vector; Fus1 indicates a vector containing Fus1; numerical values following “+” indicate μg of Erlotinib; PBS indicates Phosphate-Buffer Saline control.
as §5

c1cc(-c2cnn3cc(-c4ccc(OCCN5CCCCC5)cc4)cnc23)ccn1 [Compound C]
protection from FUS1/MK2206-mediated killing (HCC366 and H322 cells): partially protect cancer cells from FUS1/MK2206-mediated killing

NC1(c2ccc(-c3nc4ccn5c(=O)[nH]nc5c4cc3-c3ccccc3)cc2)CCC1 [MK2206]
IC50 (HCC366): 18.4 µM
IC50 (H2887): 16.5 µM
IC50 (A549): 2860 nM
IC50 (H322): 20.4 µM
phosphorylated AKT levels [1]: significantly reduced phosphorylated AKT levels

C#Cc1cccc(Nc2ncnc3cc(OCCOC)c(OCCOC)cc23)c1 [Erlotinib]
Colony formation normalized on EV (H322 cells; listed as EV + 1): 78%
Colony formation normalized on EV (H322 cells; listed as EV + 2.3): 37%
Colony formation, average (H322 cells; listed as EV + 1): 38570
Colony formation, groups 1-3 (replicates) (H322 cells; listed as EV + 1): 43621 and 36971 and 35119
Colony formation, average (H322 cells; listed as EV + 2.3): 18091
Colony formation, groups 1-3 (replicates) (H322 cells; listed as EV + 2.3): 20293 and 16469 and 17511
Colony formation, average (H322 cells; listed as pc301 + 1): 39180
Colony formation, groups 1-3 (replicates) (H322 cells; listed as pc301 + 1): 44761 and 37701 and 35079
Colony formation, average (H322 cells; listed as pc301 + 2.3): 28211
Colony formation, groups 1-3 (replicates) (H322 cells; listed as pc301 + 2.3): 28610 and 28943 and 27080
Colony formation normalized on pc301 (H322 cells; listed as EV + 1): 65%
Colony formation normalized on pc301 (H322 cells; listed as EV + 2.3): 30%
Colony formation normalized on pc301 (H322 cells; listed as pc301 + 1): 66%
Colony formation normalized on pc301 (H322 cells; listed as pc301 + 2.3): 47%
Colony formation normalized on EV (A549 cells; listed as EV + 1): 93%
Colony formation normalized on EV (A549 cells; listed as EV + 2.3): 71%
Colony formation, average (A549 cells; listed as EV + 1): 2652
Colony formation, groups 1-3 (replicates) (A549 cells; listed as EV + 1): 3083 and 2538 and 2334
Colony formation, average (A549 cells; listed as EV + 2.3): 2044
Colony formation, groups 1-3 (replicates) (A549 cells; listed as EV + 2.3): 2484 and 1910 and 1738
Colony formation, average (A549 cells; listed as pc301 + 1): 3203
Colony formation, groups 1-3 (replicates) (A549 cells; listed as pc301 + 1): 3779 and 2436 and 3393
Colony formation, average (A549 cells; listed as pc301 + 2.3): 1693
Colony formation, groups 1-3 (replicates) (A549 cells; listed as pc301 + 2.3): 1625 and 1803 and 1651
Colony formation normalized on pc301 (A549 cells; listed as EV + 1): 47%
Colony formation normalized on pc301 (A549 cells; listed as EV + 2.3): 36%
Colony formation normalized on pc301 (A549 cells; listed as pc301 + 1): 57%
Colony formation normalized on pc301 (A549 cells; listed as pc301 + 2.3): 30%
Colony formation normalized on EV (H1299 cells; listed as EV + 1): 97%
Colony formation normalized on EV (H1299 cells; listed as EV + 2.3): 47%
Colony formation, average (H1299 cells; listed as EV + 1): 16866
Colony formation, groups 1-3 (replicates) (H1299 cells; listed as EV + 1): 18287.0 and 15301.0 and 17010.0
Colony formation, average (H1299 cells; listed as EV + 2.3): 8142
Colony formation, groups 1-3 (replicates) (H1299 cells; listed as EV + 2.3): 9216.0 and 8082.0 and 7128.0
Colony formation, average (H1299 cells; listed as pc301 + 1): 29960
Colony formation, groups 1-3 (replicates) (H1299 cells; listed as pc301 + 1): 31957.0 and 25107.0 and 32817.0
Colony formation, average (H1299 cells; listed as pc301 + 2.3): 21288
Colony formation, groups 1-3 (replicates) (H1299 cells; listed as pc301 + 2.3): 24425.0 and 18192.0 and 21246.0
Colony formation normalized on pc301 (H1299 cells; listed as EV + 1): 40%
Colony formation normalized on pc301 (H1299 cells; listed as EV + 2.3): 19%
Colony formation normalized on pc301 (H1299 cells; listed as pc301 + 1): 71%
Colony formation normalized on pc301 (H1299 cells; listed as pc301 + 2.3): 50%
Colony formation normalized on EV (H460 cells; listed as EV + 1): 64%
Colony formation normalized on EV (H460 cells; listed as EV + 2.3): 40%
Colony formation, average (H460 cells; listed as EV + 1): 1360
Colony formation, groups 1-3 (replicates) (H460 cells; listed as EV + 1): 1216 and 1393 and 1470
Colony formation, average (H460 cells; listed as EV + 2.3): 859
Colony formation, groups 1-3 (replicates) (H460 cells; listed as EV + 2.3): 750 and 968 and 858
